Patent US10618905B2, “Pyrimidine-based compounds for the treatment of cancer” (G1 Therapeutics, Inc., priority 2016, dated 2020)
pIC50: −log10 of the molar value.

Key:
Type in all cases: biochemical
CDK9/Cyclin T = CDK9/Cyclin T (Homo sapiens, UniProt P50750); assay: CDK9/Cyclin T kinase assay
CDK6/Cyclin D3 = CDK6/Cyclin D3 (Homo sapiens, UniProt Q00534); assay: CDK6/Cyclin D3 kinase assay
Experimental: [The procedure below names another target; the source lists this target under the same test.] (§1) Selected compounds disclosed herein were tested in CDK4/cyclinD1, CDK2/CycA and CDK2/cyclinE kinase assays by Nanosyn (Santa Clara, Calif.) to determine their inhibitory effect on these CDKs. The assays were performed using microfluidic kinase detection technology (Caliper Assay Platform). The compounds were tested in 12-point dose-response format in singlicate at Km for ATP. Phosphoacceptor substrate peptide concentration used was 1 μM for all assays and Staurosporine was used as the reference compound for all assays.

CDK4/Cyclin D1 = CDK4/Cyclin D1 (Homo sapiens, UniProt P11802); assay: CDK4/CyclinD1 kinase assay (Nanosyn, Caliper microfluidic); details: 12-point dose-response, ATP at Km (200 μM), 1 nM enzyme, 10 hr
Experimental: as §1, with “assays. Specifics of each assay are as described below:” for “assays.”
CDK4/CyclinD1: Enzyme concentration: 1 nM; ATP concentration: 200 μM; Incubation time: 10 hr.

CDK2/Cyclin A = CDK2/Cyclin A (Homo sapiens, UniProt P24941); assay: CDK2/CyclinA kinase assay (Nanosyn, Caliper microfluidic); details: 12-point dose-response, ATP at Km (50 μM), 0.2 nM enzyme, 3 hr
Experimental: as §1, with “assays. Specifics of each assay are as described below:” for “assays.”
CDK2/CyclinA: Enzyme concentration: 0.2 nM; ATP concentration: 50 μM; Incubation time: 3 hr.

CDK2/Cyclin E = CDK2/Cyclin E (Homo sapiens, UniProt P24941); assay: CDK2/CyclinE kinase assay (Nanosyn, Caliper microfluidic); details: 12-point dose-response, ATP at Km (100 μM), 0.28 nM enzyme, 1 hr
Experimental: as §1, with “assays. Specifics of each assay are as described below:” for “assays.”
CDK2/CyclinE: Enzyme concentration: 0.28 nM; ATP concentration: 100 μM; Incubation time: 1 hr.

Chain of CDK9/Cyclin T (P50750 whole entry): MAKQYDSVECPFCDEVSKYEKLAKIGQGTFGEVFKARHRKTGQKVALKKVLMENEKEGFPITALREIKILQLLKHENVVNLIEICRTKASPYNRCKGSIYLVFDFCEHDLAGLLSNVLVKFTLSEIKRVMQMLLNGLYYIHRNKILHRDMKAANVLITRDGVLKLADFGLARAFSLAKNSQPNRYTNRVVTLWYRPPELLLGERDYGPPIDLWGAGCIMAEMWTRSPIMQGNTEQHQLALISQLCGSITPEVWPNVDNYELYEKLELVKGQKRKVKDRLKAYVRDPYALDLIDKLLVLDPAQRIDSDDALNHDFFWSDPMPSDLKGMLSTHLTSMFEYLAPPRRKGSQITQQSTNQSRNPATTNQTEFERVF
Chain of CDK9/Cyclin T (O60563 whole entry partner): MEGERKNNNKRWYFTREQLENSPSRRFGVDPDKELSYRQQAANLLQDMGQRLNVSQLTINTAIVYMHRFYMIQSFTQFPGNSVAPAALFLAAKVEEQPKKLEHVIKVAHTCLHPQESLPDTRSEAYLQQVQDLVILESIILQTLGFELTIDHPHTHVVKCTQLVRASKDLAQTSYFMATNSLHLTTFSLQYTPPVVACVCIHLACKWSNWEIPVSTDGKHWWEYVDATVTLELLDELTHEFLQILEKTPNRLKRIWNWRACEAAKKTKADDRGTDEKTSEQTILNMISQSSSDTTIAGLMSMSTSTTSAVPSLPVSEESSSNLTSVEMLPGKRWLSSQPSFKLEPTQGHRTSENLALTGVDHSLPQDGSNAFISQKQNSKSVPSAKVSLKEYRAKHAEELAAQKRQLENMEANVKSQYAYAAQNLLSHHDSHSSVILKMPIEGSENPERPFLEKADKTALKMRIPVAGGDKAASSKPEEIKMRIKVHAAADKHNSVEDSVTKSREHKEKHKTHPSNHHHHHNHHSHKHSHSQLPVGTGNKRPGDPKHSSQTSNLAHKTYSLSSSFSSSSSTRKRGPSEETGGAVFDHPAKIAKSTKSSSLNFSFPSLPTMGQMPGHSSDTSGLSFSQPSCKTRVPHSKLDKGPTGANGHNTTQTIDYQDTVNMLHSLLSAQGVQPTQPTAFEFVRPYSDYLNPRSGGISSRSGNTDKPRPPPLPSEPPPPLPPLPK
Chain of CDK4/Cyclin D1 (P11802 whole entry): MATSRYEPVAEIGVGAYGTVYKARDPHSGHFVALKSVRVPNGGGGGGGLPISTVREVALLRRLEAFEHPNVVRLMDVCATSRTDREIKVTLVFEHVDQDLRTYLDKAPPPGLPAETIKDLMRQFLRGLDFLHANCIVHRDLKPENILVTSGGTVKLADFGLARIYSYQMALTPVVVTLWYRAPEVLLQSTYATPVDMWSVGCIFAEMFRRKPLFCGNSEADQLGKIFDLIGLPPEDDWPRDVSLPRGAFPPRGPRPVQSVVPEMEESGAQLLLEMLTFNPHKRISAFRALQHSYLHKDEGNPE
Chain of CDK4/Cyclin D1 (P24385 whole entry partner): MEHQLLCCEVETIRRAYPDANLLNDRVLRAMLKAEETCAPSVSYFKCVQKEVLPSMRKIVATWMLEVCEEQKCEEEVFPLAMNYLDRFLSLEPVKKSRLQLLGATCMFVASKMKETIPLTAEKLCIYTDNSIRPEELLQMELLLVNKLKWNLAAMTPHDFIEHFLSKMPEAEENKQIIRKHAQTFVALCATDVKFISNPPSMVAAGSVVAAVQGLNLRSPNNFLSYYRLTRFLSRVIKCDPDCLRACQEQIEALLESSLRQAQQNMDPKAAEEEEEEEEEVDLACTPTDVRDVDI
Chain of CDK6/Cyclin D3 (Q00534 whole entry): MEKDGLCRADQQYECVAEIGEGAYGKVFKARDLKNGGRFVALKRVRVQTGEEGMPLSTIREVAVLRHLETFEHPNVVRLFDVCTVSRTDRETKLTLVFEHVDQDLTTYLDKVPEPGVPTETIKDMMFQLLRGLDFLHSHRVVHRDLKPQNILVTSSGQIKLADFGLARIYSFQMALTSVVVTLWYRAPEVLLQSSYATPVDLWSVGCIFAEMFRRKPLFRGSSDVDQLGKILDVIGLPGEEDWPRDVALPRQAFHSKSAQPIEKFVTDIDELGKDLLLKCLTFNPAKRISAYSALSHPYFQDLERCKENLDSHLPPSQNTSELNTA
Chain of CDK6/Cyclin D3 (P30281 whole entry partner): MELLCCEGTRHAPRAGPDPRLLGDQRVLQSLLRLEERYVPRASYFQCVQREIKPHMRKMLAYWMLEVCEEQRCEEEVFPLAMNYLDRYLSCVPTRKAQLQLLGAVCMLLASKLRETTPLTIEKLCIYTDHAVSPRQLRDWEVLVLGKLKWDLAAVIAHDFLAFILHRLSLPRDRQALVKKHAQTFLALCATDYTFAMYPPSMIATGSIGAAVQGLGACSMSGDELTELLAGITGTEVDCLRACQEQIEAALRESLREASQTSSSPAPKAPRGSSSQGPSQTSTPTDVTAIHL

| pIC50 (CDK9/Cyclin T) | pIC50 (CDK6/Cyclin D3) | pIC50 (CDK4/Cyclin D1) | pIC50 (CDK2/Cyclin A) | pIC50 (CDK2/Cyclin E) | SMILES |
| --- | --- | --- | --- | --- | --- |
| 4.49 | 5.90 | 6.13 | < 4.00 | < 4.00 | CCCNC1=NCC2(CCCCC2)n2c1cc1cnc(Nc3ccc(N4CCN(C)CC4)cn3)nc12 [Compound 3, N2′-(5-(4-methylpiperazin-1-yl)pyridin-2-yl)-N6′-propyl-8′H-spiro[cyclohexane-1,9′-pyrazino[1′,2′: 1,5]pyrrolo[2,3-d]pyrimidine]-2′,6′-diamine] |
| 6.00 | 7.00 | 7.40 | 5.00 | 5.15 | CO[C@H]1CC[C@]2(CC1)CN=Cc1cc3cnc(Nc4ccc(N5CCN(C)CC5)cn4)nc3n12 [Compound 12, (1R,4R)-4-methoxy-N-(5-(4-methylpiperazin-1-yl)pyridin-2-yl)-8′H-spiro[cyclohexane-1,9′-pyrazino[1′,2′:1,5]pyrrolo[2,3-d]pyrimidin]-2′-amine] |
| 5.60 | 7.62 | 7.02 | 5.43 | 5.52 | CC1=NCC2(CCCCC2)n2c1cc1cnc(Nc3ccc(N4CCN(C)CC4)cn3)nc12 [Compound 9, 6′-methyl-N-(5-(4-methylpiperazin-1-yl)pyridin-2-yl)-8′H-spiro[cyclohexane-1,9′-pyrazino[1′,2′: 1,5]pyrrolo[2,3-d]pyrimidin]-2′-amine] |
| 7.02 | 8.52 | 9.00 | 6.73 | 7.21 | CN1CCN(c2ccc(Nc3ncc4cc5n(c4n3)C3(CCCCC3)CN=C5)nc2)CC1 [Compound 1, N-(5-(4-methylpiperazin-1-yl)pyridin-2-yl)-8′H-spiro[cyclohexane-1,9′-pyrazino[1′,2′:1,5]pyrrolo[2,3-d]pyrimidin]-2′-amine] |
| 6.05 | 7.70 | 8.05 | 5.40 | 5.52 | CO[C@H]1CC[C@@]2(CC1)CN=Cc1cc3cnc(Nc4ccc(N5CCN(C)CC5)cn4)nc3n12 [Compound 13, (1S,4S)-4-methoxy-N-(5-(4-methylpiperazin-1-yl)pyridin-2-yl)-8′H-spiro[cyclohexane-1,9′-pyrazino[1′,2′:1,5]pyrrolo[2,3-d]pyrimidin]-2′-amine] |
| 5.80 | 7.21 | 7.57 | 4.61 | 4.26 | CN1CCN(c2ccc(Nc3ncc4cc5n(c4n3)C3(CCCCC3)CN=C5Nc3ccccc3)nc2)CC1 [Compound 4, N2′-(5-(4-methylpiperazin-1-yl)pyridin-2-yl)-N6′-phenyl-8′H-spiro[cyclohexane-1,9′-pyrazino[1′,2′: 1,5]pyrrolo[2,3-d]pyrimidine]-2′,6′-diamine] |
| 4.95 | 6.41 | 6.80 | 4.15 | < 4.00 | CN1CCN(c2ccc(Nc3ncc4cc5n(c4n3)C3(CCCCC3)CN=C5NCc3ccccc3)nc2)CC1 [Compound 5, N6′-benzyl-N2′-(5-(4-methylpiperazin-1-yl)pyridin-2-yl)-8′H-spiro[cyclohexane-1,9′-pyrazino[1′,2′: 1,5]pyrrolo[2,3-d]pyrimidine]-2′,6′-diamine] |
| 5.35 | 7.05 | 7.54 | 4.89 | 5.24 | CN1CCN(c2ccc(Nc3ncc4cc5n(c4n3)C3(CCCCC3)CNC5)nc2)CC1 [Compound 2, N-(5-(4-methylpiperazin-1-yl)pyridin-2-yl)-7′,8′-dihydro-6′H-spiro[cyclohexane-1,9′-pyrazino[1′,2′: 1,5]pyrrolo[2,3-d]pyrimidin]-2′-amine] |
| 5.70 | 7.15 | 7.40 | 5.15 | 5.30 | CN1CCN(c2ccc(Nc3ncc4cc5n(c4n3)C3(CCOCC3)CN=C5)nc2)CC1 [Compound 10, N-(5-(4-methylpiperazin-1-yl)pyridin-2-yl)-2,3,5,6-tetrahydro-8′H-spiro[pyran-4,9′-pyrazino[1′,2′: 1,5]pyrrolo[2,3-d]pyrimidin]-2′-amine] |
